Here are results for four compounds from patent US20240115588A1, “USE OF PROTEASOME INHIBITORS IN THE TREATMENT OF CORONAVIRUS INFECTIONS” (priority 2021, published 2024).

One data set relates to human plasma protein. Conditions: IV administered bortezomib; average; cited from earlier work.
Data set [1] concerns the target β5 chymotrypsin-like subunit of the 20S proteolytic site of the proteasome (Homo sapiens, UniProt P28074). The note with it: proteasome inhibitor dissociation; cited from earlier work.
Data set [2] deals with 2019 Novel Coronavirus, Isolate USA-WA1/2020 (SARS-CoV-2). Kind of data set: In vitro efficacy in Calu-3 lung cells, immunostaining assay. It is filed as cell-based.
Data set [3] deals with Vero E6 cells. The note with it: cited from earlier work.
Data set [4] deals with 2019 Novel Coronavirus, Isolate USA-WA1/2020 (SARS-CoV-2). Description: In vitro efficacy in Vero E6 cells, immunostaining assay (second testing series). It is filed as cell-based. Conditions: for EC50: Severe acute respiratory syndrome coronavirus 2, Vero C1008.
For data set [5] the following is noted: cited from earlier work.
For data set [6], the system named is Vero E6 cells. The note with it: ranking of drugs for expected efficacy against SARS-CoV-2; cited from earlier work.
In another data set the test system is SARS-CoV-2. Conditions: cited from earlier work; for dose for complete prevention of CPE: Vero E6, shorter drug treatment time, bortezomib could not completely prevent CPE at these doses.
[7] abbreviates: Vero E6, shorter treatment schedule.

Some results are limits rather than exact numbers.

As for `CC(C)C[C@H](NC(=O)[C@H](Cc1ccccc1)NC(=O)c1cnccn1)B(O)O` [Bortezomib], the “in vitro binding to human plasma protein” value with human plasma protein was 83%. In addition, in data set [1], the dissociation half-life is 1.83 h. In addition, the EC50 was found to be 6.9 nM in data set [2] (Calu-3 lung cells, MOI 0.001 TCID50/cell, immunostaining at 48±6 hours post inoculation, preliminary results, read-out: EC50); 7.8 nM in data set [2] (Severe acute respiratory syndrome coronavirus 2, Calu-3, Calu-3 lung cells, MOI 0.001 TCID50/cell, immunostaining at 48±6 hours post inoculation, preliminary results, read-out: EC50); 9.92 nM in data set [4] (Vero E6 cells, MOI 0.001 TCID50/cell, immunostaining at 48±6 hours post inoculation, read-out: EC50). The EC100 entry in data set [2] (Calu-3 lung cells, whether EC100 was achieved) is recorded as “Achieved”; in data set [4] (Vero E6 cells, whether EC100 was achieved) it was “Achieved”. The “doses at which cytotoxicity was observed” value with Vero E6 cells [3] (setting [7]) is above 30 µM. The “concentration at which cytotoxicity was observed” value with Vero E6 cells [3] (Vero E6 cells) was 2 nM. The bioavailability in data set [5] (IV administration or subcutaneous injection) is reported as 100%. The “time to peak plasma levels” value in data set [5] (after IV administration) is “approximately 5 minutes”. Moreover, the “category in algorithmic prediction study” value with Vero E6 cells [6] is given as “cytotoxic drug”. In the data set on SARS-CoV-2, the “dose for complete prevention of CPE” value was above 30 µM. In the data set with SARS-CoV-2 (setting [7]), the “doses at which inhibition of virus-induced cytopathic effects was observed” value was above 30 µM. Also, the “concentration inhibiting virus-induced cytopathic effects (CPE)” value in the data set on SARS-CoV-2 (Vero E6 cells infected with SARS-CoV-2) is 0.05 µM.
As to `CC(C)C[C@H](NC(=O)CNC(=O)c1cc(Cl)ccc1Cl)B(O)O` [Ixazomib], the dissociation half-life in data set [1] is 0.3 h.
For the compound `CCC(CC)COC(=O)[C@H](C)N[P@](=O)(OC[C@H]1O[C@@](C#N)(c2ccc3c(N)ncnn23)[C@H](O)[C@@H]1O)Oc1ccccc1` [Remdesivir], the EC50 in data set [2] (Severe acute respiratory syndrome coronavirus 2, Calu-3) stood at 252 nM; in data set [4], 1150 nM.
With `CCN(CC)CCCC(C)Nc1ccnc2cc(Cl)ccc12` (stereo not shown) [chloroquine], the “dose for complete prevention of CPE” value in the data set on SARS-CoV-2 is 15 µM.
